Reference: US10499642B2, “Isoxazoline-substituted benzamides and analogues as insecticides” (SYNGENTA PARTICIPATIONS AG, priority 2015, dated 2019)

Tests used:
Type in all cases: in vivo
Spodoptera littoralis = Spodoptera littoralis (Egyptian cotton leaf worm) cotton leaf disc test; conditions: foliar, 72 h, read-out: control (at least one of mortality, anti-feedant effect, and growth inhibition)
Method in brief: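 Cotton leaf discs on agar were sprayed with aqueous dilutions of 10′000 ppm DMSO stocks, dried and infested with five L1 larvae. Mortality, anti-feedant effect and growth inhibition were scored against untreated samples 3 days after infestation. Control = any of these higher than untreated.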

Plutella xylostella = Plutella xylostella (diamond back moth) artificial diet test; conditions: 120 h, read-out: effect in at least one of the two categories (mortality or growth inhibition)
Method in brief: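 Artificial diet treated with aqueous compound solutions made from DMSO stocks, dried, then infested with L2 larvae (10 to 15 per well). Mortality and growth inhibition scored versus untreated controls 5 days after infestation. Application rate 200 ppm.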

Diabrotica Balteata = assay: Diabrotica balteata (corn root worm) maize sprout test; conditions: 96 h, read-out: effect in at least one of the two categories (mortality or growth inhibition)
Method in brief: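 Maize sprouts on agar were sprayed with aqueous test solutions made from 10′000 ppm DMSO stocks, dried, then infested with 6 to 10 L2 larvae per well. Mortality and growth inhibition versus untreated samples were assessed 4 days after infestation; application rate 200 ppm.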

Thrips tabaci = Thrips tabaci (onion thrips) sunflower leaf disc test; conditions: foliar, 144 h
Method: Thrips tabaci (Onion Thrips):
(§1) Sunflower leaf discs were placed on agar in 24-well microtiter plates and sprayed with aqueous test solutions prepared from 10′000 ppm DMSO stock solutions. After drying the leaf discs were infested with a thrips population of mixed ages. The samples were assessed for mortality 6 days after infestation.

Tetranychus urticae = Tetranychus urticae (two-spotted spider mite) bean leaf disc test; conditions: foliar, 192 h
Method: Tetranychus urticae (Two-Spotted Spider Mite):
as §1, with “Bean” for “Sunflower”, “discs” for “discs were placed”, “were” for “and”, “mite” for “thrips”, “on mixed population (mobile stages) 8” for “6”

Myzus persicae = Myzus persicae (green peach aphid) sunflower leaf disc test; conditions: foliar, 144 h
Method: Myzus persicae (Green Peach Aphid):
Sunflower leaf discs were placed on agar in a 24-well microtiter plate and sprayed with test solutions at an application rate of 200 ppm. After drying, the leaf discs were infested with an aphid population of mixed ages. After an incubation period of 6 days after treatment, samples were checked for mortality. The following compounds gave at least 80% mortality of Myzus persicae: […]

CCOC1=NOC(N(C=O)C(=O)c2ccc(C3=NO[C@@](c4cc(Cl)cc(Cl)c4)(C(F)(F)F)C3)cc2C)C1 (stereo partly drawn) [Compound A133, 4-[(5S)-5-(3,5-dichlorophenyl)-5-(trifluoromethyl)-4H-isoxazol-3-yl]-N-(3-ethoxy-4,5-dihydroisoxazol-5-yl)-N-formyl-2-methyl-benzamide]
≥ 80%: percent control (mortality, anti-feedant effect or growth inhibition) at 200 ppm (Spodoptera littoralis) | percent effect (mortality or growth inhibition) at 200 ppm (Plutella xylostella) | percent effect (mortality or growth inhibition) at 200 ppm (Diabrotica Balteata) | mortality at 200 ppm (Thrips tabaci) | mortality at 200 ppm (Tetranychus urticae) | mortality at 200 ppm (Myzus persicae)

COC1=NOC(N(C=O)C(=O)c2ccc(C3=NO[C@@](c4cc(Cl)cc(Cl)c4)(C(F)(F)F)C3)cc2C)C1 (stereo partly drawn) [Compound A134]
≥ 80%: percent control (mortality, anti-feedant effect or growth inhibition) at 200 ppm (Spodoptera littoralis) | percent effect (mortality or growth inhibition) at 200 ppm (Plutella xylostella) | percent effect (mortality or growth inhibition) at 200 ppm (Diabrotica Balteata) | mortality at 200 ppm (Thrips tabaci) | mortality at 200 ppm (Tetranychus urticae) | mortality at 200 ppm (Myzus persicae)

Cc1cc(C2=NO[C@@](c3cc(Cl)cc(Cl)c3)(C(F)(F)F)C2)ccc1C(=O)NC1CC(C(F)(F)F)=NO1 (stereo partly drawn) [Compound A136, 4-[(5S)-5-(3,5-dichlorophenyl)-5-(trifluoromethyl)-4H-isoxazol-3-yl]-2-methyl-N-[3-(trifluoromethyl)-4,5-dihydroisoxazol-5-yl]benzamide]
≥ 80%: percent control (mortality, anti-feedant effect or growth inhibition) at 200 ppm (Spodoptera littoralis) | percent effect (mortality or growth inhibition) at 200 ppm (Plutella xylostella) | percent effect (mortality or growth inhibition) at 200 ppm (Diabrotica Balteata) | mortality at 200 ppm (Thrips tabaci) | mortality at 200 ppm (Tetranychus urticae) | mortality at 200 ppm (Myzus persicae)

CCC1=NOC(NC(=O)c2ccc(C3=NO[C@@](c4cc(Cl)cc(Cl)c4)(C(F)(F)F)C3)cc2C)C1 (stereo partly drawn) [Compound A137]
≥ 80%: percent control (mortality, anti-feedant effect or growth inhibition) at 200 ppm (Spodoptera littoralis) | percent effect (mortality or growth inhibition) at 200 ppm (Plutella xylostella) | percent effect (mortality or growth inhibition) at 200 ppm (Diabrotica Balteata) | mortality at 200 ppm (Thrips tabaci) | mortality at 200 ppm (Tetranychus urticae) | mortality at 200 ppm (Myzus persicae)

Cc1cc(C2=NO[C@@](c3cc(Cl)cc(Cl)c3)(C(F)(F)F)C2)ccc1C(=O)N(C=O)C1CC(C(F)(F)F)=NO1 (stereo partly drawn) [Compound A138]
≥ 80%: percent control (mortality, anti-feedant effect or growth inhibition) at 200 ppm (Spodoptera littoralis) | percent effect (mortality or growth inhibition) at 200 ppm (Plutella xylostella) | percent effect (mortality or growth inhibition) at 200 ppm (Diabrotica Balteata) | mortality at 200 ppm (Thrips tabaci) | mortality at 200 ppm (Tetranychus urticae) | mortality at 200 ppm (Myzus persicae)

CCC1=NOC(N(C=O)C(=O)c2ccc(C3=NO[C@@](c4cc(Cl)cc(Cl)c4)(C(F)(F)F)C3)cc2C)C1 (stereo partly drawn) [Compound A139]
≥ 80%: percent control (mortality, anti-feedant effect or growth inhibition) at 200 ppm (Spodoptera littoralis) | percent effect (mortality or growth inhibition) at 200 ppm (Plutella xylostella) | percent effect (mortality or growth inhibition) at 200 ppm (Diabrotica Balteata) | mortality at 200 ppm (Thrips tabaci) | mortality at 200 ppm (Tetranychus urticae) | mortality at 200 ppm (Myzus persicae)

CC1=NOC(N(C=O)C(=O)c2ccc(C3=NO[C@@](c4cc(Cl)cc(Cl)c4)(C(F)(F)F)C3)cc2C)C1 (stereo partly drawn) [Compound A140]
≥ 80%: percent control (mortality, anti-feedant effect or growth inhibition) at 200 ppm (Spodoptera littoralis) | percent effect (mortality or growth inhibition) at 200 ppm (Plutella xylostella) | percent effect (mortality or growth inhibition) at 200 ppm (Diabrotica Balteata) | mortality at 200 ppm (Thrips tabaci) | mortality at 200 ppm (Tetranychus urticae) | mortality at 200 ppm (Myzus persicae)

CC1=NOC(NC(=O)c2ccc(C3=NO[C@@](c4cc(Cl)cc(Cl)c4)(C(F)(F)F)C3)cc2C)C1 (stereo partly drawn) [Compound A141]
≥ 80%: percent control (mortality, anti-feedant effect or growth inhibition) at 200 ppm (Spodoptera littoralis) | percent effect (mortality or growth inhibition) at 200 ppm (Plutella xylostella) | percent effect (mortality or growth inhibition) at 200 ppm (Diabrotica Balteata) | mortality at 200 ppm (Thrips tabaci) | mortality at 200 ppm (Tetranychus urticae) | mortality at 200 ppm (Myzus persicae)

Cc1cc(C2=NO[C@@](c3cc(Cl)cc(C(F)(F)F)c3)(C(F)(F)F)C2)ccc1C(=O)N(C=O)C1CC(Br)=NO1 (stereo partly drawn) [Compound A142, N-(3-bromo-4,5-dihydroisoxazol-5-yl)-4-[(5S)-5-[3-chloro-5-(trifluoromethyl)phenyl]-5-(trifluoromethyl)-4H-isoxazol-3-yl]-N-formyl-2-methyl-benzamide]
≥ 80%: percent control (mortality, anti-feedant effect or growth inhibition) at 200 ppm (Spodoptera littoralis) | percent effect (mortality or growth inhibition) at 200 ppm (Plutella xylostella) | percent effect (mortality or growth inhibition) at 200 ppm (Diabrotica Balteata) | mortality at 200 ppm (Thrips tabaci) | mortality at 200 ppm (Tetranychus urticae) | mortality at 200 ppm (Myzus persicae)

Cc1cc(C2=NO[C@@](c3cc(Cl)c(Cl)c(Cl)c3)(C(F)(F)F)C2)ccc1C(=O)NC1CC(C#N)=NO1 (stereo partly drawn) [Compound A145, N-(3-cyano-4,5-dihydroisoxazol-5-yl)-2-methyl-4-[(5S)-5-(3,4,5-trichlorophenyl)-5-(trifluoromethyl)-4H-isoxazol-3-yl]benzamide]
≥ 80%: percent control (mortality, anti-feedant effect or growth inhibition) at 200 ppm (Spodoptera littoralis) | percent effect (mortality or growth inhibition) at 200 ppm (Plutella xylostella) | percent effect (mortality or growth inhibition) at 200 ppm (Diabrotica Balteata) | mortality at 200 ppm (Thrips tabaci) | mortality at 200 ppm (Tetranychus urticae) | mortality at 200 ppm (Myzus persicae)
